These results are taken from the supplement of paper PMC10307832.

Common to all, as to assay: relative viability (nuclei count vs DMSO), 5 days (fraction); higher = more cells survive
Compound in assay [1]: O=S(=O)(c1ccccc1)N(CC(F)(F)F)c1ccc(C(O)(C(F)(F)F)C(F)(F)F)cc1 + O=C(CCCCCCC(=O)Nc1ccccc1)NO [Vorinostat] (partner 1 µM)
The method, boiled down: (§1)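 Relative viability is defined as nuclei in treated wells over nuclei in vehicle wells. Duplicate plates were run and medians reported. Lung cancer cell lines in 1536-well plates were dosed by pin tool one day after seeding, with one drug or with a fixed anchor-drug dose plus five library-drug doses (not always all listed) in √10 steps, and nuclei were counted after 5 days.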

Compound in assay [2]: O=S(=O)(c1ccccc1)N(CC(F)(F)F)c1ccc(C(O)(C(F)(F)F)C(F)(F)F)cc1 + CS(=O)(=O)CCNCc1ccc(-c2ccc3ncnc(Nc4ccc(OCc5cccc(F)c5)c(Cl)c4)c3c2)o1 [Lapatinib] (partner 2 µM)
The method, boiled down:
as §1

Compound in the assay “RO-3306 + Navitoclax”: C1=CC2=C(C=CC(=C2)C=C3C(=O)NC(=NCC4=CC=CS4)S3)N=C1 [RO-3306] + CC1(C)CCC(c2ccc(Cl)cc2)=C(CN2CCN(c3ccc(C(=O)NS(=O)(=O)c4ccc(N[C@H](CCN5CCOCC5)CSc5ccccc5)c(S(=O)(=O)C(F)(F)F)c4)cc3)CC2)C1 [Navitoclax] (partner 0.5 µM)
The method, boiled down: as §1

Compound in the assay “RO-3306 + Olaparib”: C1=CC2=C(C=CC(=C2)C=C3C(=O)NC(=NCC4=CC=CS4)S3)N=C1 [RO-3306] + O=C(c1cc(Cc2n[nH]c(=O)c3ccccc23)ccc1F)N1CCN(C(=O)C2CC2)CC1 [Olaparib] (partner 8 µM)
The method, boiled down: as §1

Compound in assay [3]: O=S(=O)(c1ccccc1)N(CC(F)(F)F)c1ccc(C(O)(C(F)(F)F)C(F)(F)F)cc1 + COc1cc2c(Oc3ccc(NC(=O)C4(C(=O)Nc5ccc(F)cc5)CC4)cc3F)ccnc2cc1OCCCN1CCOCC1 [Foretinib] (partner 0.25 µM)
The method, boiled down:
as §1

UMC-11: the relative viability came to 0.381 in assay [1] (first compound 0.8 µM); 0.357 in assay [1] (first compound 2.53 µM); 0.396 in assay [1] (first compound 8 µM); 1.19 in assay [2] (first compound 0.8 µM); 0.966 in assay [2] (first compound 2.53 µM); 1.22 in assay [2] (first compound 8 µM). For the same cell line, the relative viability with RO-3306 + Navitoclax (first compound 0.01 µM) is 0.325; with RO-3306 + Navitoclax (first compound 0.03162 µM), 0.312; with RO-3306 + Navitoclax (first compound 0.1 µM), 0.305; in the assay with RO-3306 + Navitoclax (first compound 0.3162 µM) it was 0.321; with RO-3306 + Navitoclax (first compound 1 µM), 0.319; with RO-3306 + Olaparib (first compound 0.01 µM), 0.365. Besides, the relative viability with RO-3306 + Olaparib (first compound 0.03162 µM) was 0.411; in the assay with RO-3306 + Olaparib (first compound 0.1 µM), 0.351; in the assay with RO-3306 + Olaparib (first compound 0.3162 µM), 0.385; with RO-3306 + Olaparib (first compound 1 µM) it was 0.299; in assay [3] (first compound 0.8 µM), 1.16; in assay [3] (first compound 2.53 µM), 1.12. In addition, in assay [3] (first compound 8 µM), the relative viability stood at 1.08.
